Legend:
Type in all cases: in vivo
Campanula = assay: Spray with 1-MCP solutions without surfactant, ethylene challenge (Example 3)
Method: (§1) Spray applications were made using (unless otherwise noted) AFxRD-038 powder containing 3.8% active ingredient, i.e. 1-MCP, and also containing dextrose, alpha-cyclodextrin, and amino acid salt. Rates listed are for active ingredient e.g. 5 mg active ingredient per liter. Sprayed liquid contained (unless otherwise noted) AFxRD-038 powder added to water. AFxRD-038 powder was obtained from AgroFresh Inc. The water used (unless otherwise noted) was tap water. Applications were done in 500 ml spray bottles at rates typical for growth regulators applications in the ornamental industry i.e., 200 ml per square meter. Spraying was done within 5-15 minutes of mixing the formulation. Plants were allowed to dry for 1-4 hours before being challenged with ethylene (2 ppm for about 16 hours at ambient temperatures).
Bud wilting and flower abscission (%) of Campanula (in pots) sprayed with 1-MCP solutions without a surfactant, and challenged with ethylene. We observed the percent of plants on which one or more buds or one or more flowers underwent wilting or abscission or both.

Petunia = assay: Spray with 1-MCP solutions with or without Silwet L-77, ethylene challenge (Example 6)
Method: as §1
(§2) Surfactant Silwet™ L-77 (called “surf” below) was sometimes included to evaluate the effect of surfactant on efficacy. Silwet™ L-77 was used in the form of a pure liquid. The amounts shown below as “ml/L” refer to milliliters of pure Silwet™ L-77 per liter of liquid CP composition.
Bud wilting (%) of Petunia (in six-pack trays) sprayed with 1-MCP solutions with or without Silwet™ L-77 surfactant and challenged with ethylene.

Regal Geranium ‘Camelot’ = assay: Spray with 1-MCP solutions with or without surfactant, ethylene challenge (Example 4)
Method: as §1, §2
(§3) Flower loss (%) on Regal Geranium cultivars, ‘Camelot’ and ‘Jewel’ (in pots), sprayed with 1-MCP solutions with or without surfactant (Silwet™ L-77) and challenged with ethylene.

Regal Geranium ‘Jewel’ = assay: as above
Method: as §1, §2, §3

Cyclamen plants = assay: Spray with 1-MCP solutions, ethylene challenge (Example 1); settings: Day 7; for Appearance: 1 = poor, 5 = excellent
Method: as §1
(§4) Visual appearance and flower or bud abscission of Impatiens (unknown cultivar in pots with diameter of 10 cm (4 inch)) and Cyclamen plants (unknown cultivar in pots of diameter 11.5 cm (4.5 inch)) sprayed with 1-MCP solutions and challenged with ethylene.

Impatiens = assay: as above; settings: 0 = poor, 5 = excellent
Method: as §1, §4

Verbena = assay: Nursery plants sprayed, boxed and shipped, quality rating (Example 10); settings: 50 mg/L of 1-MCP; after 5 days shipping; 0 (poor) to 2 (good)
Method: (§5) A range of nursery plants that often show quality problems during shipping were chosen including Datura (tropical), Mini-rose, Delphinium (sun perennial), Verbena (sun perennial), Asclepias (sun perennial), Delosperma (groundcover), Myosotis (shade perennial) and Primula (shade perennial).
(§6) Spray liquid had 50 mg/L of 1-MCP. Sprayed and unsprayed control plants, all of which were blooming, were packed in boxes according to standard procedures and shipped under commercial conditions. After 5 days plants were unpacked and given a quality rating, from 0 (poor) to 2 (good).

Datura (tropical) = assay: as above; settings: 50 mg/L of 1-MCP; after 5 days shipping; 0 (poor) to 2 (good)
Method: as §5, §6

Primula = assay: as above; settings: 50 mg/L of 1-MCP; after 5 days shipping; 0 (poor) to 2 (good)
Method: as §5, §6

Mini-rose = assay: as above; settings: 50 mg/L of 1-MCP; after 5 days shipping; 0 (poor) to 2 (good)
Method: as §5, §6

Myosotis = assay: as above; settings: 50 mg/L of 1-MCP; after 5 days shipping; 0 (poor) to 2 (good)
Method: as §5, §6

Asclepias = assay: as above; settings: 50 mg/L of 1-MCP; after 5 days shipping; 0 (poor) to 2 (good)
Method: as §5, §6

Delphinium = assay: as above; settings: 50 mg/L of 1-MCP; after 5 days shipping; 0 (poor) to 2 (good)
Method: as §5, §6

Delosperma = assay: as above; settings: 50 mg/L of 1-MCP; after 5 days shipping; 0 (poor) to 2 (good)
Method: as §5, §6

[1] = 1-MCP 5 mg/L, surf. 0 ml/L, Day 1 (Day 1/Day 2 column pair)
[2] = 1-MCP 5 mg/L, surf. 0 ml/L, Day 1 (Day 1/Day 7 column pair)
[3] = 1-MCP 5 mg/L, surf. 0 ml/L, Day 2
[4] = 1-MCP 5 mg/L, surf. 0 ml/L, Day 7
[5] = 1-MCP 5 mg/L, surf. 2 ml/L, Day 1, phytotoxicity was observed
[6] = 1-MCP 5 mg/L, surf. 2 ml/L, Day 2, phytotoxicity was observed
[7] = 1-MCP 10 mg/L, surf. 0 ml/L, Day 1
[8] = 1-MCP 10 mg/L, surf. 0 ml/L, Day 7
[9] = 1-MCP 25 mg/L, surf. 0 ml/L, Day 1
[10] = 1-MCP 25 mg/L, surf. 0 ml/L, Day 7
[11] = 1-MCP 50 mg/L, surf. 0 ml/L, Day 1 (Day 1/Day 2 column pair), phytotoxicity was observed
[12] = 1-MCP 50 mg/L, surf. 0 ml/L, Day 1 (Day 1/Day 7 column pair), phytotoxicity was observed
[13] = 1-MCP 50 mg/L, surf. 0 ml/L, Day 2, phytotoxicity was observed
[14] = 1-MCP 50 mg/L, surf. 0 ml/L, Day 7, phytotoxicity was observed
[15] = 1-MCP 50 mg/L, surf. 2 ml/L, Day 1, phytotoxicity was observed
[16] = 1-MCP 50 mg/L, surf. 2 ml/L, Day 2, phytotoxicity was observed

CC1=CC1 [1-MCP, 1-methylcyclopropene]
Bud Wilting and/or Flower Abscission (%) (Campanula; 1-MCP 5 mg/L, Day 1): 21% | Bud Wilting and/or Flower Abscission (%) (Campanula; 1-MCP 5 mg/L, Day 7): 25% | Bud Wilting and/or Flower Abscission (%) (Campanula; 1-MCP 10 mg/L, Day 1): 45% | Bud Wilting and/or Flower Abscission (%) (Campanula; 1-MCP 10 mg/L, Day 7): 52% | Bud Wilting and/or Flower Abscission (%) (Campanula; 1-MCP 25 mg/L, Day 1): 38% | Bud Wilting and/or Flower Abscission (%) (Campanula; 1-MCP 25 mg/L, Day 7): 59% | Bud Wilting and/or Flower Abscission (%) (Campanula; 1-MCP 50 mg/L, Day 1): 38% | Bud Wilting and/or Flower Abscission (%) (Campanula; 1-MCP 50 mg/L, Day 7): 57% | Bud Wilting (%) (Petunia; 1-MCP 1 mg/L, surf 0 ml/L, Day 5): 89% | Bud Wilting (%) (Petunia; 1-MCP 1 mg/L, surf 0 ml/L, Day 9): 93% | Bud Wilting (%) (Petunia; 1-MCP 1 mg/L, surf 0.25 ml/L, Day 5): 76% | Bud Wilting (%) (Petunia; 1-MCP 1 mg/L, surf 0.25 ml/L, Day 9): 93% | Bud Wilting (%) (Petunia; 1-MCP 2.5 mg/L, surf 0 ml/L, Day 5): 74% | Bud Wilting (%) (Petunia; 1-MCP 2.5 mg/L, surf 0 ml/L, Day 9): 91% | Bud Wilting (%) (Petunia; 1-MCP 2.5 mg/L, surf 0.25 ml/L, Day 5): 68% | Bud Wilting (%) (Petunia; 1-MCP 2.5 mg/L, surf 0.25 ml/L, Day 9): 85% | Bud Wilting (%) (Petunia; 1-MCP 5 mg/L, surf 0 ml/L, Day 5): 63% | Bud Wilting (%) (Petunia; 1-MCP 5 mg/L, surf 0 ml/L, Day 9): 71% | Bud Wilting (%) (Petunia; 1-MCP 5 mg/L, surf 0.25 ml/L, Day 5): 57% | Bud Wilting (%) (Petunia; 1-MCP 5 mg/L, surf 0.25 ml/L, Day 9): 67% | Bud Wilting (%) (Petunia; 1-MCP 10 mg/L, surf 0 ml/L, Day 5): 34% | Bud Wilting (%) (Petunia; 1-MCP 10 mg/L, surf 0 ml/L, Day 9): 52% | Bud Wilting (%) (Petunia; 1-MCP 10 mg/L, surf 0.25 ml/L, Day 5): 37% | Bud Wilting (%) (Petunia; 1-MCP 10 mg/L, surf 0.25 ml/L, Day 9): 50% | Flower Loss (%) (Regal Geranium ‘Camelot’; [1]): 45 ^ % | Flower Loss (%) (Regal Geranium ‘Camelot’; [2]): 62% | Flower Loss (%) (Regal Geranium ‘Camelot’; [3]): 64^ % | Flower Loss (%) (Regal Geranium ‘Camelot’; [4]): 46% | Flower Loss (%) (Regal Geranium ‘Camelot’; [5]): 5^(3) % | Flower Loss (%) (Regal Geranium ‘Camelot’; [6]): 24^(3) % | Flower Loss (%) (Regal Geranium ‘Camelot’; [7]): 20% | Flower Loss (%) (Regal Geranium ‘Camelot’; [8]): 0% | Flower Loss (%) (Regal Geranium ‘Camelot’; [9]): 28% | Flower Loss (%) (Regal Geranium ‘Camelot’; [10]): 27% | Flower Loss (%) (Regal Geranium ‘Camelot’; [11]): 0^(3) % | Flower Loss (%) (Regal Geranium ‘Camelot’; [12]): 0^(3) % | Flower Loss (%) (Regal Geranium ‘Camelot’; [13]): 0^(3) % | Flower Loss (%) (Regal Geranium ‘Camelot’; [14]): 48^(3) % | Flower Loss (%) (Regal Geranium ‘Camelot’; [15]): 5^(3) % | Flower Loss (%) (Regal Geranium ‘Camelot’; [16]): 44^(3) % | Flower Loss (%) (Regal Geranium ‘Jewel’; [1]): 84^ % | Flower Loss (%) (Regal Geranium ‘Jewel’; [2]): 90% | Flower Loss (%) (Regal Geranium ‘Jewel’; [3]): 100 ^ % | Flower Loss (%) (Regal Geranium ‘Jewel’; [4]): 76% | Flower Loss (%) (Regal Geranium ‘Jewel’; [5]): 65^(3) % | Flower Loss (%) (Regal Geranium ‘Jewel’; [6]): 100^(3) % | Flower Loss (%) (Regal Geranium ‘Jewel’; [7]): 85% | Flower Loss (%) (Regal Geranium ‘Jewel’; [8]): 68% | Flower Loss (%) (Regal Geranium ‘Jewel’; [9]): 52% | Flower Loss (%) (Regal Geranium ‘Jewel’; [10]): 43% | Flower Loss (%) (Regal Geranium ‘Jewel’; [11]): 28^(3) % | Flower Loss (%) (Regal Geranium ‘Jewel’; [12]): 26^(3) % | Flower Loss (%) (Regal Geranium ‘Jewel’; [13]): 82^(3) % | Flower Loss (%) (Regal Geranium ‘Jewel’; [14]): 65^(3) % | Flower Loss (%) (Regal Geranium ‘Jewel’; [15]): 35^(3) % | Flower Loss (%) (Regal Geranium ‘Jewel’; [16]): 81^(3) % | Abscission (%) (Cyclamen plants; 1-MCP 10 mg/L): 25.6% | Appearance (Cyclamen plants; 1-MCP 10 mg/L): 3.7 | Abscission (%) (Cyclamen plants; 1-MCP 15 mg/L): 23.3% | Appearance (Cyclamen plants; 1-MCP 15 mg/L): 3.7 | Abscission (%) (Cyclamen plants; 1-MCP 25 mg/L): 25.0% | Appearance (Cyclamen plants; 1-MCP 25 mg/L): 3.7 | Appearance (Impatiens; 1-MCP 10 mg/L, Day 1): 3.7 | Appearance (Impatiens; 1-MCP 10 mg/L, Day 4): 3.3 | Appearance (Impatiens; 1-MCP 100 mg/L, Day 1): 4.3 | Appearance (Impatiens; 1-MCP 100 mg/L, Day 4): 3.7 | Appearance (Impatiens; 1-MCP 300 mg/L, Day 1): 2.3 | Appearance (Impatiens; 1-MCP 300 mg/L, Day 4): 1.3 | Quality Rating, Sprayed (Verbena): 0.5 | Quality Rating, Sprayed (Datura (tropical)): 2.0 | Quality Rating, Sprayed (Primula): 1.0 | Quality Rating, Sprayed (Mini-rose): 1.8 | Quality Rating, Sprayed (Myosotis): 0.5 | Quality Rating, Sprayed (Asclepias): 1.5 | Quality Rating, Sprayed (Delphinium): 1.0 | Quality Rating, Sprayed (Delosperma): 1.3

From patent US20110034335A1, “Treatment of Ornamental Plants” (priority 2009, published 2011)
